In the test the test system is SCID CD4+ CD45RBhigh T cell transfer colitis model. Kind of test: SCID CD4+ CD45RBhigh T cell transfer colitis model. The test is classed as in vivo, SCID mice. Conditions: for Total number of leukocytes (cells/μL): blood on the day after final administration; for Total number of leukocytes (cells/μL) / Change ratio of body weight (%) On the fourth week / Change ratio of body weight (%) On the third week: mean ± standard error. An excerpt: SCID CD4^+ CD45RB^high T cell transfer colitis model has been reported as a model resembling to Crohn's disease due to its histopathological characteristics and the produced cytokines (Powrie F et al, Immunity, 1, 553-562, 1994). In addition, this model has also been used for evaluation of a medicine which is used in the treatment of inflammatory bowel disease and its effectiveness has been reported (Liu Z et al., J. Autoimmunl., 29, 187-194, 2007).
C.B-17/Icr-scid/scid Jcl (SCID mice) (female, 8 weeks of age, mouse to be transferred) and BALB/c Cr Slc (BALB/c mice) (female, 8 weeks of age, mouse for transfer cell preparation) were obtained and used in the test. CD4^+ CD45RB^high T cells (naive T cells) prepared from the spleen of BALB/c mice were transferred intraperitoneally into the SCID mice at a concentration of 3×10^5 cells/body, and then colitis was induced by breeding it for 4 weeks. Preparation of the CD4^+ CD45RB^high T cells was carried out in accordance with the method of Uraushihara et al. (J. Immunol., 171, 708-716, 2003) and FACSAriaCell Sorter (Becton Dickinson Japan) was used as a cell separator.
The compound produced in Example 27 (compound 27) was dissolved in distilled water and orally administered at doses of 0.3 mg/kg, 1 mg/kg and 3 mg/kg, once a day for 4 weeks starting on the preceding day of cell transfer. Distilled water alone was administered to the vehicle group. Body weight was determined every day during the administration period. The change ratio (%) of the body weight on the determination day was calculated based on the body weight on the day of the start of administration. On the next day of final administration, blood was collected and the large intestine was extracted. The total number of leukocytes was measured using the collected blood. After fixing the extracted large intestine with formalin, tissue sections were prepared and hematoxylin-eosin staining was carried out. Evaluation was performed in accordance with the scoring system (Uraushihara K et al., J. Immunol., 171, 708-716, 2003). That is, the large intestine was roughly divided into 3 regions (proximal region, middle region and distal region), and scoring was carried out on the 3 layers, which are mucosa, submucosa and muscularis, of each region. By totaling the obtained scores of each region, the value having the highest total score among the three regions was used as the score of the individual. The change ratio of the body weight and the total number of leukocytes were shown by mean±standard error and the pathological score was shown by median.

[1] abbreviates: 0.3 mg/kg orally once a day for 4 weeks.
Where [2] appears, read: 1 mg/kg orally once a day for 4 weeks.
Where [3] appears, read: 3 mg/kg orally once a day for 4 weeks.
[4] abbreviates: in comparison with the vehicle group, result in words.

With `C[C@](N)(CO)CCCc1ccc(Sc2cccc(C(F)(F)F)c2)cc1Cl.Cl` [Compound 27, (R)-2-amino-5-[2-chloro-4-(3-trifluoromethylphenylthio)phenyl]-2-methylpentan-1-ol hydrochloride], the “Total number of leukocytes (cells/μL)” value is, setting by setting: under setting [1], 2733 ± 561 cells/μL; under setting [2], 1980 ± 241 cells/μL; under setting [3], 1720 ± 327 cells/μL. Also, the “Change ratio of body weight (%) On the fourth week” value is on record as −1.0 ± 2.2% under setting [1], −1.4 ± 2.0% under setting [2] and −0.8 ± 2.0 % under setting [3]. For the same compound, the Pathological score by setting is: (0.3 mg/kg orally once a day for 4 weeks, large intestine histology, median) 5; (1 mg/kg orally once a day for 4 weeks, large intestine histology, median) 5; (3 mg/kg orally once a day for 4 weeks, large intestine histology, median) 3.5; (result in words) “suppressive effect was found”. Further, the “Change ratio of body weight (%) On the third week” value by setting is: under setting [1], 1.1 ± 1.4 %; under setting [2], 1.5 ± 0.8 %; under setting [3], 0.5 ± 1.2 %. Also, the body weight loss entry under setting [4] is on record as “significantly suppressed”. The “total number of leukocytes” value under setting [4] is given as “significantly suppressed”. Besides, the “effect on the SCID CD4+ CD45RBhigh T cell transfer colitis model” value (overall conclusion in words) was “shows the suppressive effect”.

For the origin of these results see patent US8476305B2, “Therapeutic agent or prophylactic agent for inflammatory bowel disease comprising amino alcohol derivative as active ingredient” (Kyorin Pharmaceutical Co., Ltd., priority 2008, dated 2013).
